# Measurements as given in patent publication CN104546697A, “一种右旋布洛芬注射液药物组合物及其制备方法” (CHENGDU EASTON PHARMACEUTICAL Co Ltd, priority 2013, dated 2015).
# Columns and labels:
# [1] = tested on: carrageenan-induced rise of body temperature in rats [大鼠角叉菜胶诱导的体温升高]; assay: Effect on carrageenan-induced rise of body temperature in rats; format: in vivo, SD rat; details: rat, IV
# [2] = tested on: pain threshold in the mouse hot plate method [小鼠热板法痛阈]; assay: Effect on pain threshold in the mouse hot plate method; format: in vivo, Kunming mouse, female; details: IV, dose exceeding 80mg/kg
# [3] = background art; cited from earlier work
SMILES,"dose range with the best, dose-dependent effect ([1]; carrageenan-induced rise of body temperature)",temperature-lowering effect above the best dose range ([1]; dose exceeding 40mg/kg),analgesic effect above the best dose range [2],pharmacological activity relative to levorotatory ibuprofen [3] [fold],pharmacological activity relative to racemate [3] [fold],pharmacological activity [3]
CC(C)Cc1ccc([C@H](C)C(=O)O)cc1 [右旋布洛芬],7.5~30 mg/kg,降温效果反而减弱,镇痛效果反而减弱,160,1.6,–
CC(C)Cc1ccc([C@@H](C)C(=O)O)cc1 [左旋布洛芬],–,–,–,–,–,非活性成分
